PubChem BioAssay AID212 (DTP/NCI, 2004)
Where “and” joins values, the source holds several entries; their conditions need not be identical. Equal entries are not always repeated. Records with an inconclusive call do not appear.

Tested on: BDF1 mice, colon carcinoma 38 sc, T/C %
Experiment: NCI In Vivo Anticancer Drug Screen. Data for tumor model Colon Carcinoma 38 (subcutaneous) in B6D2F1 (BDF1) mice
Conditions: endpoint: median tumor weight (est.), higher = larger tumour
In short: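 Mice with transplanted tumors are treated with compound or vehicle. Survival or tumor size is then measured in both groups. The ratio of treated to control gives the reported figure.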

[1] = dose: 50.0 mg/kg/injection, schedule: Q07DX002 (ip), vehicle: Klucel (hydroxypropylcellulose) (HPC)
[2] = dose: 200.0 mg/kg/injection, schedule: Q07DX002 (ip), vehicle: Klucel (hydroxypropylcellulose) (HPC)
[3] = dose: 400.0 mg/kg/injection, schedule: Q07DX002 (ip), vehicle: Klucel (hydroxypropylcellulose) (HPC)
[4] = dose: 12.5 mg/kg/injection, schedule: Q07DX002 (ip), vehicle: saline with Tween-80
[5] = dose: 25.0 mg/kg/injection, schedule: Q07DX002 (ip), vehicle: saline with Tween-80
[6] = dose: 50.0 mg/kg/injection, schedule: Q07DX002 (ip), vehicle: saline with Tween-80
[7] = dose: 200.0 mg/kg/injection, schedule: Q07DX002 (ip), vehicle: saline with Tween-80

With `ClCCN(CCCl)c1ccc(/C=C/c2ccccc2)cc1` the T/C [1] was 71 % of control, the T/C (dose: 100.0 mg/kg/injection, schedule: Q07DX002 (ip), vehicle: Klucel (hydroxypropylcellulose) (HPC)) was 116 % of control and the T/C [2] was 72 % of control. For the same molecule, the T/C [3] was 71 % of control and the T/C (dose: 800.0 mg/kg/injection, schedule: Q07DX002 (ip), vehicle: Klucel (hydroxypropylcellulose) (HPC)) was 79 % of control.
In the case of `CCOC(=O)c1ccc(NN=NCCF)cc1`, the T/C (dose: 3.12 mg/kg/injection, schedule: Q07DX002 (ip), vehicle: saline with Tween-80) is reported as 86 % of control, the T/C (dose: 6.25 mg/kg/injection, schedule: Q07DX002 (ip), vehicle: saline with Tween-80) is reported as 94 % of control and the T/C [4] is reported as 70 % of control. The T/C [5] was 89 % of control.
In the case of `C=C1C(=O)OC2CC(C)C3C4OC4C(O)C3(C)C(O)C12` (stereo not given), the T/C (dose: 6.25 mg/kg/injection, schedule: Q07DX002 (ip), vehicle: saline) is reported as 115 % of control, the T/C (dose: 12.5 mg/kg/injection, schedule: Q07DX002 (ip), vehicle: saline) is reported as 118 % of control and the T/C (dose: 25.0 mg/kg/injection, schedule: Q07DX002 (ip), vehicle: saline) is reported as 116 % of control. The T/C (dose: 50.0 mg/kg/injection, schedule: Q07DX002 (ip), vehicle: saline) was 80 % of control and the T/C (dose: 100.0 mg/kg/injection, schedule: Q07DX002 (ip), vehicle: saline) was 155 % of control.
In the case of `Nc1ncnc2c1ncn2C1OC(COP(=O)(O)O)C(O)C1O` (stereo not given), the T/C (dose: 12.5 mg/kg/injection, schedule: Q07DX003 (ip), vehicle: water) is reported as 79 % of control, the T/C (dose: 25.0 mg/kg/injection, schedule: Q07DX003 (ip), vehicle: water) is reported as 70 % of control and the T/C (dose: 50.0 mg/kg/injection, schedule: Q07DX003 (ip), vehicle: water) is reported as 60 % of control. The T/C (dose: 80.0 mg/kg/injection, schedule: Q07DX002 (ip), vehicle: water) was 81 % of control, the T/C (dose: 100.0 mg/kg/injection, schedule: Q07DX003 (ip), vehicle: water) was 95 % of control and the T/C (dose: 160.0 mg/kg/injection, schedule: Q07DX002 (ip), vehicle: water) was 70 % of control. The T/C (dose: 200.0 mg/kg/injection, schedule: Q07DX002 (ip), vehicle: saline) was 94 % of control, the T/C (dose: 200.0 mg/kg/injection, schedule: Q07DX003 (ip), vehicle: water) was 118 % of control and the T/C (dose: 320.0 mg/kg/injection, schedule: Q07DX002 (ip), vehicle: water) was 80 % of control. For the same molecule, the T/C (dose: 400.0 mg/kg/injection, schedule: Q07DX002 (ip), vehicle: saline) was 89 % of control, the T/C (dose: 400.0 mg/kg/injection, schedule: Q07DX003 (ip), vehicle: water) was 56 % of control and the T/C (dose: 640.0 mg/kg/injection, schedule: Q07DX002 (ip), vehicle: water) was 86 % of control. The T/C (dose: 1600.0 mg/kg/injection, schedule: Q07DX002 (ip), vehicle: saline) was 77 % of control and the T/C (dose: 3200.0 mg/kg/injection, schedule: Q07DX002 (ip), vehicle: saline) was 50 % of control.
For `CCCCCCCCCCCCSC1=C(Cl)C(=O)C(OC)=C(OC)C1=O`, the T/C [5] was 110 % of control and 97 % of control, the T/C [6] was 91 % of control and 96 % of control and the T/C [7] was 104 % of control.
With `O=C(O)/C=C/C(=O)N1Cc2cc3ccccc3nc2C1` the T/C [4] was 84 % of control, the T/C [6] was 89 % of control and the T/C (dose: 100.0 mg/kg/injection, schedule: Q07DX002 (ip), vehicle: saline with Tween-80) was 173 % of control. The T/C [7] was 104 % of control.
In the case of `OCC1OC(n2cnc3c(NO)ncnc32)C(O)C1O` (stereo not given), the T/C (dose: 12.5 mg/kg/injection, schedule: Q07DX002 (ip), vehicle: Klucel (hydroxypropylcellulose) (HPC)) is reported as 88 % of control and 96 % of control, the T/C (dose: 25.0 mg/kg/injection, schedule: Q07DX002 (ip), vehicle: Klucel (hydroxypropylcellulose) (HPC)) is reported as 89 % of control and 91 % of control and the T/C [1] is reported as 121 % of control and 100 % of control. For the same molecule, the T/C [2] was 118 % of control and the T/C [3] was 96 % of control and 106 % of control.
